Melting point data for one compound are collected here from US6399628B1, “N-(aryl/heteroaryl) amino acid esters, pharmaceutical compositions comprising same, and methods for inhibiting alpha- amyloid peptide release and/or its synthesis by use of such compounds” (Athena Neurosciences, Inc., priority 1996, dated 2002).

As usually defined, the melting point is the temperature of the solid-liquid transition.

SMILES strings stand for the structures.

`CCOC(=O)C(CC)Nc1ccc2ccccc2c1` (stereo not shown) [Example 39, 2-[N-(naphth-2-yl)amino]butanoic acid ethyl ester] showed a melting point of 81 to 83 °C.
